In ChEMBL document CHEMBL1157625, “Design, synthesis and preliminary activity assay of 1,2,3,4-tetrahydroisoquinoline-3-carboxylic acid derivatives as novel Histone deacetylases (HDACs) inhibitors” (Bioorg Med Chem, 2010):

Tests used:
Histone deacetylase 8 = target: T1, Histone deacetylase 8 (Homo sapiens, UniProt Q9BY41)
T1 sequence (Q9BY41 whole entry): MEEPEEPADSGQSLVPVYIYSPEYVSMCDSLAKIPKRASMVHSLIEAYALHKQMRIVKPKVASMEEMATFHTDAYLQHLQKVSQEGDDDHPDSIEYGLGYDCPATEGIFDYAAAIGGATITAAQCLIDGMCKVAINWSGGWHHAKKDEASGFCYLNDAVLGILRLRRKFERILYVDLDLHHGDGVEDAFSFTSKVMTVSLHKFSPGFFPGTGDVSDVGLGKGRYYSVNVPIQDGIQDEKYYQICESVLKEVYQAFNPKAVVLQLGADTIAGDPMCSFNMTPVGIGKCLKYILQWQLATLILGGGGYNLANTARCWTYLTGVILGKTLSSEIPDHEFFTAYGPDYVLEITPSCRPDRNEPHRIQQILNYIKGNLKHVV
Description: Inhibition of HDAC8 expressed in Escherichia coli assessed as Boc-Lys (acetyl)-AMC substrate hydrolysis by fluorimetric assay

SK-OV-3 = assay: Antiproliferative activity against human SKOV3 cells after 48 hrs by MTT assay; assay type: functional, cell-based; conditions: SK-OV-3, 48 h
HCT-116 = assay: Antiproliferative activity against human HCT116 cells after 48 hrs by MTT assay; assay type: functional, cell-based; conditions: HCT-116, 48 h
HL-60 = assay: Antiproliferative activity against human HL60 cells after 48 hrs by MTT assay; assay type: functional, cell-based; conditions: HL-60, 48 h

Row | SMILES | IC50 (Histone deacetylase 8) | other results
1 | CC(C)(C)NC(=O)[C@@H]1Cc2ccc(OCC(=O)NO)cc2CN1 | 12.2 µM | 
2 | CC(C)(C)OC(=O)N1Cc2cc(OCC(=O)NO)ccc2C[C@H]1C(=O)Nc1ccccc1 | 1.29 µM | 
3 | O=C(COc1ccc2c(c1)CN[C@H](C(=O)Nc1ccccc1)C2)NO | 8.21 µM | 
4 | CC(C)(C)OC(=O)N1Cc2cc(OCC(=O)NO)ccc2C[C@H]1C(=O)NCc1ccccc1 | 3.41 µM | 
5 | COc1ccc(NC(=O)[C@@H]2Cc3ccc(OCC(=O)NO)cc3CN2)cc1 | 5.57 µM | 
6 | O=C(COc1ccc2c(c1)CN[C@H](C(=O)NCc1ccccc1)C2)NO | 5.1 µM | 
7 | CC(C)(C)OC(=O)N1Cc2cc(OCC(=O)NO)ccc2C[C@H]1C(=O)NCCc1ccccc1 | 2.67 µM | 
8 | O=C(COc1ccc2c(c1)CN[C@H](C(=O)Nc1ccc(F)cc1)C2)NO | 3.23 µM | 
9 | CCCCCCNC(=O)[C@@H]1Cc2ccc(OCC(=O)NO)cc2CN1C(=O)OC(C)(C)C | 4.42 µM | 
10 | O=C(COc1ccc2c(c1)CN[C@H](C(=O)Nc1ccc(-c3ccccc3)cc1)C2)NO | 2.21 µM | 
11 | Cc1ccc(NC(=O)[C@@H]2Cc3ccc(OCC(=O)NO)cc3CN2C(=O)OC(C)(C)C)cc1 | 1.65 µM | 
12 | CCCCCNC(=O)[C@@H]1Cc2ccc(OCC(=O)NO)cc2CN1C(=O)OC(C)(C)C | 3.02 µM | 
13 | CC(C)(C)OC(=O)N1Cc2cc(OCC(=O)NO)ccc2C[C@H]1C(=O)Nc1ccc(F)c(Cl)c1 | 1.55 µM | 
14 | CC(C)(C)OC(=O)N1Cc2cc(OCC(=O)NO)ccc2C[C@H]1C(=O)Nc1cccc2ccccc12 | 4.25 µM | 
15 | O=C(COc1ccc2c(c1)CN[C@H](C(=O)Nc1cccc3ccccc13)C2)NO | 1.06 µM | IC50 (SK-OV-3): 750 µM; IC50 (HCT-116): 170 µM; IC50 (HL-60): 980 µM
16 | O=C(COc1ccc2c(c1)CN1C(=O)N(c3ccc(-c4ccccc4)cc3)C(=O)[C@@H]1C2)NO | > 50 µM | 
17 | Cc1ccc(NC(=O)[C@@H]2Cc3ccc(OCC(=O)NO)cc3CN2)c(C)c1 | 3.39 µM | 
18 | CCCCCCNC(=O)[C@@H]1Cc2ccc(OCC(=O)NO)cc2CN1 | 5.77 µM | 

Row | SMILES | IC50 (Histone deacetylase 8) | other results
19 | CC(C)(C)OC(=O)N1Cc2cc(OCC(=O)NO)ccc2C[C@H]1C(=O)Nc1cccc(Cl)c1 | 1.17 µM | IC50 (SK-OV-3): 680 µM; IC50 (HCT-116): 490 µM; IC50 (HL-60): 960 µM
20 | Cc1ccc(NC(=O)[C@@H]2Cc3ccc(OCC(=O)NO)cc3CN2C(=O)OC(C)(C)C)c(C)c1 | 3.78 µM | 
21 | Cc1ccc(NC(=O)[C@@H]2Cc3ccc(OCC(=O)NO)cc3CN2)cc1 | 3.82 µM | 
22 | Cc1ccccc1NC(=O)[C@@H]1Cc2ccc(OCC(=O)NO)cc2CN1C(=O)OC(C)(C)C | 4 µM | 
23 | Cc1ccccc1NC(=O)[C@@H]1Cc2ccc(OCC(=O)NO)cc2CN1 | 4.13 µM | 
24 | Cc1cccc(NC(=O)[C@@H]2Cc3ccc(OCC(=O)NO)cc3CN2)c1 | 3.62 µM | 
25 | CC(C)(C)OC(=O)N1Cc2cc(OCC(=O)NO)ccc2C[C@H]1C(=O)Nc1ccc(F)cc1 | 2.56 µM | 
26 | COc1ccc(NC(=O)[C@@H]2Cc3ccc(OCC(=O)NO)cc3CN2C(=O)OC(C)(C)C)cc1 | 1 µM | IC50 (SK-OV-3): 420 µM; IC50 (HCT-116): 48 µM; IC50 (HL-60): > 2120 µM
27 | O=C(COc1ccc2c(c1)CN[C@H](C(=O)NCCc1ccccc1)C2)NO | 4.07 µM | 
28 | O=C(COc1ccc2c(c1)CN[C@H](C(=O)Nc1ccc(F)c(Cl)c1)C2)NO | 3.34 µM | 
29 | O=C(COc1ccc2c(c1)CN(C(=O)OCc1ccccc1)[C@H](C(=O)NCCc1ccccc1)C2)NO | 0.58 µM | IC50 (SK-OV-3): > 2000 µM; IC50 (HCT-116): 370 µM; IC50 (HL-60): > 2000 µM
30 | Cc1cccc(NC(=O)[C@@H]2Cc3ccc(OCC(=O)NO)cc3CN2C(=O)OC(C)(C)C)c1 | 1.77 µM | 
31 | CC(C)(C)OC(=O)N1Cc2cc(OCC(=O)NO)ccc2C[C@H]1C(=O)Nc1ccc(-c2ccccc2)cc1 | 1.98 µM | 
32 | CC(C)(C)NC(=O)[C@@H]1Cc2ccc(OCC(=O)NO)cc2CN1C(=O)OC(C)(C)C | 4.58 µM | 
33 | O=C(COc1ccc2c(c1)CN1C(=O)N(c3ccccc3)C(=O)[C@@H]1C2)NO | > 50 µM | 
34 | O=C(COc1ccc2c(c1)CN[C@H](C(=O)Nc1cccc(Cl)c1)C2)NO | 3.2 µM | 
35 | CCCCCNC(=O)[C@@H]1Cc2ccc(OCC(=O)NO)cc2CN1 | 3.54 µM | 
